Target: T1, human FFAR1 (GPR40) (Homo sapiens, UniProt O14842)
T1 construct: Flag; expressed in transfected cells; host or cells: HEK293T
Test: NFAT-RE-based reporter gene activity assay (Dual-Glo luciferase) for GPR40 agonistic activity in co-transfected HEK293T cells
Assay type: cell-based
Conditions: 4-hour treatment; for Efficacy (%): class symbols
Excerpt: The pcDNA3.0-flag-FFAR1 (GPR40) plasmid was constructed using conventional molecular cloning methods. The main steps were as follows: The full-length cDNA sequence of human FFAR1 (GPR40) (NM_005303.3) was inserted into the HindIII and XbaI restriction sites of the pcDNA3.0 vector via PCR technology, resulting in the pcDNA3.0-flag-FFAR1 (GPR40) plasmid; pGL4.30 [luc2P NFAT-RE] (# E8481) and pRL-TK (#E2241) plasmids were both purchased from Promega; the plasmids were transformed into DH5α E. coli using the CaCl2 method, further cultured and amplified, and then purified using a plasmid extraction kit (TIANGEN, # DP117) to obtain the corresponding plasmid DNA.
HEK293T cells were seeded in a 96-well plate at a density of 1 × 10^4/well one day prior to plasmid transfection. Cell transfection was performed according to the instructions of the transfection reagent FuGENE® HD (Promega, # E2311). The main steps were as follows: Taking one well as an example, plasmids pcDNA3.0-flag-FFAR1 (GPR40), pGL4.30 [luc2P NFAT-RE], and pRL-TK were added at ratios of 50 ng, 50 ng, and 5 ng, respectively, into 10 µL of Opti-MEM™ I medium (Gibco, #11058021) and mixed thoroughly; then, 0.2 µL of FuGENE® HD was added, mixed thoroughly, and allowed to stand at room temperature for 5 minutes; finally, this 10 µL mixture was added to the cell well containing 100 µL of culture medium. 24 hours after co-transfection, the compounds were serially diluted at half-logarithmic intervals with 1 µM as the highest concentration, resulting in 10 concentration gradients, which were added to the cell culture medium for a 4-hour treatment.
After 4 hours of compound treatment, the cells were assayed according to the instructions of the Dual-Glo® Luciferase Assay System (Promega, # E2940). The main steps were as follows: 50 µL of culture medium was aspirated from each well and discarded, followed by the addition of 50 µL of Dual-Glo® Luciferase Reagent, and the mixture was shaken at room temperature for 10 minutes. Then, 80 µL of the lysate reaction solution was transferred to a white opaque optiPlate-96 well plate, and the luminescence signal of Firefly luciferase (Firefly-Luc) was measured using an MD i3x multifunctional microplate reader. Subsequently, 40 µL of Dual-Glo® Stop & Glo® Reagent was added, and the mixture was shaken at room temperature for 10 minutes. Finally, the luminescence signal of Renilla luciferase (Renilla-Luc) was measured using the MD i3x multifunctional microplate reader. The ratio of Firefly-Luc/Renilla-Luc was used as the compound's agonistic activity toward GPR40, and normalization was performed using the ratio of the solvent DMSO group. A dose-response curve was fitted using a four-parameter model with GraphPad Prism 8.0 software to calculate the EC50 value.

T1 sequence (O14842 whole entry): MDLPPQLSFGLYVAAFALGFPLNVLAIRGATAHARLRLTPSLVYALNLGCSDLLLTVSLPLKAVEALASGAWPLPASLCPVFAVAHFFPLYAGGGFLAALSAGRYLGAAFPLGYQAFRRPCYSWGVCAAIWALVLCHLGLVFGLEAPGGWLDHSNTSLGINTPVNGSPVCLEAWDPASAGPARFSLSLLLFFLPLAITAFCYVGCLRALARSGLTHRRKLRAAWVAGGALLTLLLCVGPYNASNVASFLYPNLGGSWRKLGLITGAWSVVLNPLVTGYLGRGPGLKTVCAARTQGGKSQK

SMILES | EC50 [nM] | Efficacy (%)
CCCCC[C@H]1CC[C@H](c2nnc(-c3c(C4CCN(c5cccc(OC)c5)CC4)oc4cc(C(CC(=O)O)C5CC5)ccc34)o2)CC1 (relative stereo) [Compound 138] | 100 to 500 | †† (150 ≥ Efficacy (%) > 100)
COc1ccc(F)c(N2CCC(c3cc4ccc(C(CC(=O)O)C5CC5)cc4o3)CC2)c1 (centres unmarked) [Comparative Example 1, reference compound] | > 1000 | NA (NA indicates no activity)
CN1CCC(c2oc3cc(C(CC(=O)O)C4CC4)ccc3c2-c2cccc(C(C)(C)C)c2)CC1 (centres unmarked) [Compound 1] | > 1000 | † (100 ≥ Efficacy (%) > 50)
CC(C)(C)c1cccc(-c2c(-c3ccccc3)oc3cc(C(CC(=O)O)C4CC4)ccc23)c1 (centres unmarked) [Compound 2] | > 500 | †† (150 ≥ Efficacy (%) > 100)
Cc1ccc(N2CCC(c3oc4cc(C(CC(=O)O)C5CC5)ccc4c3-c3cccc(C(C)(C)C)c3)CC2)cc1 (centres unmarked) [Compound 3] | 100 to 500 | †† (150 ≥ Efficacy (%) > 100)
Cc1cccc(N2CCC(c3oc4cc(C(CC(=O)O)C5CC5)ccc4c3-c3cccc(C(C)(C)C)c3)CC2)c1 (centres unmarked) [Compound 4] | 100 to 500 | † (100 ≥ Efficacy (%) > 50)
Cc1ccccc1N1CCC(c2oc3cc(C(CC(=O)O)C4CC4)ccc3c2-c2cccc(C(C)(C)C)c2)CC1 (centres unmarked) [Compound 5] | 100 to 500 | ††† (Efficacy (%) > 150)
CCc1cccc(N2CCC(c3oc4cc(C(CC(=O)O)C5CC5)ccc4c3-c3ccc(C(C)(C)C)cc3)CC2)c1 (centres unmarked) [Compound 6] | > 500 | †† (150 ≥ Efficacy (%) > 100)
CC(C)(C)c1cccc(-c2c(C3CCN(c4ccc(F)cc4)CC3)oc3cc(C(CC(=O)O)C4CC4)ccc23)c1 (centres unmarked) [Compound 7] | 100 to 500 | †† (150 ≥ Efficacy (%) > 100)
CC(C)(C)c1cccc(-c2c(C3CCN(c4cccc(F)c4)CC3)oc3cc(C(CC(=O)O)C4CC4)ccc23)c1 (centres unmarked) [Compound 8] | > 500 | †† (150 ≥ Efficacy (%) > 100)
CC(C)(C)c1cccc(-c2c(C3CCN(c4ccccc4F)CC3)oc3cc(C(CC(=O)O)C4CC4)ccc23)c1 (centres unmarked) [Compound 9] | 100 to 500 | †† (150 ≥ Efficacy (%) > 100)
COc1ccc(N2CCC(c3oc4cc(C(CC(=O)O)C5CC5)ccc4c3-c3cccc(C(C)(C)C)c3)CC2)cc1 (centres unmarked) [Compound 10] | 100 to 500 | †† (150 ≥ Efficacy (%) > 100)
COc1cccc(N2CCC(c3oc4cc(C(CC(=O)O)C5CC5)ccc4c3-c3cccc(C(C)(C)C)c3)CC2)c1 (centres unmarked) [Compound 11] | 10 to 100 | ††† (Efficacy (%) > 150)
COc1cccc(N2CCC(c3oc4cc(C(CC(=O)O)C5CC5)ccc4c3-c3ccc(C(C)(C)C)cc3)CC2)c1 (centres unmarked) [Compound 13] | 100 to 500 | ††† (Efficacy (%) > 150)
CCOc1cccc(N2CCC(c3oc4cc(C(CC(=O)O)C5CC5)ccc4c3-c3ccc(C(C)(C)C)cc3)CC2)c1 (centres unmarked) [Compound 15] | 100 to 500 | ††† (Efficacy (%) > 150)
CC(C)(C)c1cccc(-c2c(C3CCN(c4cccc(C(F)(F)F)c4)CC3)oc3cc(C(CC(=O)O)C4CC4)ccc23)c1 (centres unmarked) [Compound 20] | 100 to 500 | †† (150 ≥ Efficacy (%) > 100)
COc1ccccc1N1CCC(c2oc3cc(C(CC(=O)O)C4CC4)ccc3c2-c2cccc(C(C)(C)C)c2)CC1 (centres unmarked) [Compound 21] | 100 to 500 | †† (150 ≥ Efficacy (%) > 100)
CC(C)(C)c1cccc(-c2c(C3CCN(c4ccccc4Cl)CC3)oc3cc(C(CC(=O)O)C4CC4)ccc23)c1 (centres unmarked) [Compound 22] | 100 to 500 | †† (150 ≥ Efficacy (%) > 100)
CC(C)(C)c1cccc(-c2c(C3CCN(c4ccccc4OC(F)(F)F)CC3)oc3cc(C(CC(=O)O)C4CC4)ccc23)c1 (centres unmarked) [Compound 23] | 100 to 500 | †† (150 ≥ Efficacy (%) > 100)
CNc1cccc(N2CCC(c3oc4cc(C(CC(=O)O)C5CC5)ccc4c3-c3ccc(C(C)(C)C)cc3)CC2)c1 (centres unmarked) [Compound 24] | 100 to 500 | † (100 ≥ Efficacy (%) > 50)

SMILES | EC50 [nM] | Efficacy (%)
CSc1cccc(N2CCC(c3oc4cc(C(CC(=O)O)C5CC5)ccc4c3-c3ccc(C(C)(C)C)cc3)CC2)c1 (centres unmarked) [Compound 26] | 100 to 500 | †† (150 ≥ Efficacy (%) > 100)
CC(C)(C)c1ccc(-c2c(C3CCN(c4cccc(S(C)(=O)=O)c4)CC3)oc3cc(C(CC(=O)O)C4CC4)ccc23)cc1 (centres unmarked) [Compound 27] | 100 to 500 | † (100 ≥ Efficacy (%) > 50)
COc1cccc(N2CCC(c3oc4cc([C@@H](CC(=O)O)C5CC5)ccc4c3-c3cccc(C)c3)CC2)c1 [Compound 28] | 100 to 500 | ††† (Efficacy (%) > 150)
COc1cccc(-c2c(C3CCN(c4cccc(OC)c4)CC3)oc3cc(C(CC(=O)O)C4CC4)ccc23)c1 (centres unmarked) [Compound 29] | 100 to 500 | †† (150 ≥ Efficacy (%) > 100)
C=C(C)c1ccc(-c2c(C3CCN(c4cccc(OC)c4)CC3)oc3cc(C(CC(=O)O)C4CC4)ccc23)cc1 (centres unmarked) [Compound 30] | 100 to 500 | †† (150 ≥ Efficacy (%) > 100)
CSc1cccc(N2CCC(c3oc4cc(C(CC(=O)O)C5CC5)ccc4c3-c3cccc(C(C)(C)C)c3)CC2)c1 (centres unmarked) [Compound 31] | 100 to 500 | †† (150 ≥ Efficacy (%) > 100)
COc1ccnc(N2CCC(c3oc4cc(C(CC(=O)O)C5CC5)ccc4c3-c3ccc(C(C)(C)C)cc3)CC2)c1 (centres unmarked) [Compound 32] | 100 to 500 | †† (150 ≥ Efficacy (%) > 100)
COc1cccc(N2CCC(c3oc4cc([C@@H](CC(=O)O)C5CC5)ccc4c3-c3ccc(OC(C)C)cc3)CC2)c1 [Compound 33] | 10 to 100 | †† (150 ≥ Efficacy (%) > 100)
COc1cccc(N2CCC(c3oc4cc([C@@H](CC(=O)O)C5CC5)ccc4c3-c3cccc(NC(C)C)c3)CC2)c1 [Compound 34] | 10 to 100 | †† (150 ≥ Efficacy (%) > 100)
COc1cccc(N2CCC(c3oc4cc(C(CC(=O)O)C5CC5)ccc4c3-c3csc(C)c3)CC2)c1 (centres unmarked) [Compound 35] | 100 to 500 | †† (150 ≥ Efficacy (%) > 100)
COc1cccc(N2CCC(c3oc4cc(C(CC(=O)O)C5CC5)ccc4c3-c3cnn(C)c3)CC2)c1 (centres unmarked) [Compound 36] | 100 to 500 | †† (150 ≥ Efficacy (%) > 100)
CCn1cc(-c2c(C3CCN(c4cccc(OC)c4)CC3)oc3cc(C(CC(=O)O)C4CC4)ccc23)cn1 (centres unmarked) [Compound 37] | 100 to 500 | †† (150 ≥ Efficacy (%) > 100)
CC(C)(C)n1cc(-c2c(C3CCN(c4ccccc4)CC3)oc3cc(C(CC(=O)O)C4CC4)ccc23)cn1 (centres unmarked) [Compound 39] | 100 to 500 | ††† (Efficacy (%) > 150)
CC(C)(C)n1cc(-c2c(C3CCN(c4cccc(F)c4)CC3)oc3cc(C(CC(=O)O)C4CC4)ccc23)cn1 (centres unmarked) [Compound 41] | 100 to 500 | †† (150 ≥ Efficacy (%) > 100)
CC(C)(C)n1cc(-c2c(C3CCN(c4cccc(OC(F)F)c4)CC3)oc3cc(C(CC(=O)O)C4CC4)ccc23)cn1 (centres unmarked) [Compound 43] | 100 to 500 | †† (150 ≥ Efficacy (%) > 100)
COc1ccc(C#N)c(N2CCC(c3oc4cc(C(CC(=O)O)C5CC5)ccc4c3-c3cnn(C(C)(C)C)c3)CC2)c1 (centres unmarked) [Compound 44] | 100 to 500 | †† (150 ≥ Efficacy (%) > 100)
CC(C)(C)n1cc(-c2c(C3CCN(c4cccc(C5CC5)c4)CC3)oc3cc(C(CC(=O)O)C4CC4)ccc23)cn1 (centres unmarked) [Compound 45] | 100 to 500 | †† (150 ≥ Efficacy (%) > 100)
COc1cccc(N2CCC(c3oc4cc(C(CC(=O)O)C5CC5)ccc4c3-c3cnn(C(C)(C)CF)c3)CC2)c1 (centres unmarked) [Compound 47] | 100 to 500 | †† (150 ≥ Efficacy (%) > 100)
COCC(C)(C)n1cc(-c2c(C3CCN(c4cccc(OC)c4)CC3)oc3cc(C(CC(=O)O)C4CC4)ccc23)cn1 (centres unmarked) [Compound 48] | 100 to 500 | †† (150 ≥ Efficacy (%) > 100)
COc1cccc(N2CCC(c3oc4cc([C@@H](CC(=O)O)C5CC5)ccc4c3-c3nnc(C(C)(C)C(F)(F)F)o3)CC2)c1 [Compound 49] | ≤ 10 | †† (150 ≥ Efficacy (%) > 100)

— patent EP4682145A1, “BENZOHETEROCYCLIC COMPOUND, AND PREPARATION METHOD THEREFOR AND USE THEREOF” (Cascade Pharmaceuticals, Inc., priority 2023, dated 2024)
